Results published in ChEMBL document CHEMBL1201861, “Genomics of Drug Sensitity in Cancer screening data, Wellcome Trust Sanger Institute”.

Tests used:
[1] = test system: KARPAS-422; experiment: cells; assay type: functional, cell-based, Homo sapiens; conditions: Homo sapiens, KARPAS-422
Description: SANGER: Inhibition of human KARPAS-422 cell growth in a cell viability assay.

[2] = test system: EHEB; experiment: cells; assay type: functional, cell-based, Homo sapiens; conditions: Homo sapiens, EHEB;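 note: growth inhibition of human EHEB cells, read out with a cell viability assay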
Description: SANGER: Inhibition of human EHEB cell growth in a cell viability assay.

[3] = test system: NCI-H322M; experiment: cells; assay type: functional, cell-based, Homo sapiens; conditions: Homo sapiens, NCI-H322M;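 note: cell viability assay measuring inhibition of growth of human NCI-H322M cells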
Description: SANGER: Inhibition of human NCI-H322M cell growth in a cell viability assay.

[4] = test system: CHP-126; experiment: cells; assay type: functional, cell-based, Homo sapiens; conditions: Homo sapiens, CHP-126
Description: SANGER: Inhibition of human CHP-126 cell growth in a cell viability assay.

[5] = test system: KP-N-RT-BM-1; experiment: SANGER: Inhibition of human KP-N-RT-BM-1 cell growth in a cell viability assay.; assay type: functional, cell-based
[6] = test system: SKM-1; experiment: SANGER: Inhibition of human SKM-1 cell growth in a cell viability assay.; assay type: functional, cell-based
[7] = test system: CP67-MEL; experiment: SANGER: Inhibition of human CP67-MEL cell growth in a cell viability assay.; assay type: functional, cell-based
[8] = test system: EB-3; experiment: cells; assay type: functional, cell-based, Homo sapiens; conditions: Homo sapiens, EB-3;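 note: human EB-3 cells, growth inhibition read out via a cell viability assay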
Description: SANGER: Inhibition of human EB-3 cell growth in a cell viability assay.

[9] = test system: CAL-148; experiment: cells; assay type: functional, cell-based, Homo sapiens; conditions: Homo sapiens, CAL-148
Description: SANGER: Inhibition of human CAL-148 cell growth in a cell viability assay.

[10] = test system: MRK-nu-1; experiment: cells; assay type: functional, cell-based, Homo sapiens; conditions: Homo sapiens, MRK-nu-1;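 note: cell viability assay measuring growth suppression of human MRK-nu-1 cells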
Description: SANGER: Inhibition of human MRK-nu-1 cell growth in a cell viability assay.

[11] = test system: COR-L279; experiment: SANGER: Inhibition of human COR-L279 cell growth in a cell viability assay.; assay type: functional, cell-based; conditions: Homo sapiens, COR-L279
[12] = test system: NCI-H128; experiment: SANGER: Inhibition of human NCI-H128 cell growth in a cell viability assay.; assay type: functional, cell-based
[13] = test system: BC1 cell line; experiment: SANGER: Inhibition of human BC-1 cell growth in a cell viability assay.; assay type: functional, cell-based; conditions: Homo sapiens, BC1
[14] = test system: TALL-1; experiment: cells; assay type: functional, cell-based, Homo sapiens; conditions: Homo sapiens, TALL-1;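 note: growth inhibition of cultured human TALL-1 cells, read out by a cell viability assay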
Description: SANGER: Inhibition of human TALL-1 cell growth in a cell viability assay.

[15] = test system: EB2; experiment: cells; assay type: functional, cell-based, Homo sapiens; conditions: Homo sapiens, EB2;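 note: growth inhibition of EB2 cells, read out with a cell viability assay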
Description: SANGER: Inhibition of human EB2 cell growth in a cell viability assay.

SMILES	IC50 [1] [µM]	IC50 [2] [µM]	IC50 [3] [µM]	IC50 [4] [µM]	IC50 [5] [µM]	IC50 [6] [µM]	IC50 [7] [µM]	IC50 [8] [µM]	IC50 [9] [µM]	IC50 [10] [µM]	IC50 [11] [µM]	IC50 [12] [µM]	IC50 [13] [µM]	IC50 [14] [µM]	IC50 [15] [µM]
COc1cc(-c2nn([C@H]3CC[C@H](N4CCN(C(C)=O)CC4)CC3)c3ncnc(N)c23)ccc1NC(=O)c1cc2ccccc2n1C	> 5.12	> 5.12	> 5.12	> 5.12	> 5.12	> 5.12	> 5.12	> 5.12	> 5.12	2.95	> 5.12	> 5.12	> 5.12	> 5.12	> 5.12
Cc1ccc(-c2c(C(=O)CCl)n(CCCO)c3ncnc(N)c23)cc1	> 4	> 4	> 4	> 4	2.51	> 4	> 4	> 4	> 4	2.52	> 4	3.1	> 4	> 4	> 4
COc1cc2ncn(-c3cc(OCc4ccccc4C(F)(F)F)c(C(N)=O)s3)c2cc1OC [GW843682X]	0.21	> 0.256	> 0.256	> 0.256	0.131	> 0.256	0.116	> 0.256	0.0907	0.0301	0.0992	> 0.256	0.244	0.013	> 0.256
CC(=O)O[C@H]1C(=O)[C@@]2(C)[C@H]([C@H](OC(=O)c3ccccc3)[C@]3(O)C[C@H](OC(=O)[C@H](O)[C@@H](NC(=O)c4ccccc4)c4ccccc4)C(C)=C1C3(C)C)[C@]1(OC(C)=O)CO[C@@H]1C[C@@H]2O [PACLITAXEL]	0.0565	> 0.102	> 0.102	> 0.102	> 0.102	> 0.102	0.0681	> 0.102	0.0544	0.00299	0.00999	> 0.102	> 0.102	0.0504	> 0.102
N[C@@H](CSC(c1ccccc1)(c1ccccc1)c1ccccc1)C(=O)O [S-TRITYL-L-CYSTEINE]	1.2	> 5.12	> 5.12	> 5.12	> 5.12	> 5.12	2.39	> 5.12	4.35	0.76	2.86	> 5.12	> 5.12	2.53	> 5.12
CCN(CC)CCNC(=O)c1c(C)[nH]c(/C=C2\C(=O)Nc3ccc(F)cc32)c1C [SUNITINIB]	7.57	> 8	> 8	> 8	> 8	> 8	> 8	> 8	> 8	> 8	> 8	> 8	7.25	> 8	> 8
